Reference: patent publication US20190209472A1, “FORMULATIONS FOR DERMAL DELIVERY OF POLYMER CONJUGATES OF INDOLOCARBAZOLE COMPOUNDS WITH REDUCED EXPOSURE” (Sienna Biopharmaceuticals, Inc., priority 2017, published 2019)
Where two headings read alike, the source gives them in different places.

Test system: lesions of psoriasis vulgaris
Excerpt: This was a Phase I, single-center, randomized, double-blind, placebo-controlled study in male and female patients with stable psoriasis vulgaris aged >18 and <71 years. Sixteen patients were enrolled in 2 treatment groups. […] Patients attended a screening visit within 21 days prior to Day 1. Patients were then admitted to the CPU in the afternoon of Day −1 and remained resident in the CPU until the morning of Day 8. Patients attended a follow-up visit 7 to 10 days after the last treatment administration on Day 7.
The ointment was applied by the CPU staff, using a spatula and finger cot.
Physicians Global Assessment (PGA) scores were assessed at screening, Day 1, Day 7 and at follow-up. Digital photographs of the application sites were also taken on admission to the CPU, Day 7 and at follow-up.

**Q.** With “(9S, 10R, 12R)-10-(3′-mPEG2000-1′,3′-oxazolidine-2′,4′-dione)-2,3,9,10,11,12-hexahydro-9-methyl-1-oxo-9,12-epoxy-1H-diindolo[1,2,3-fg:3′,2′,1′-k,l]pyrrolo[3,4-i][1,6] benzodiazocine] [CT327]” as the substance, how does the “Complete resolution of plaque(s)” value (7-day dosing period) read?
**A.** Its value is “No patients showed complete resolution”.

**Q.** And the “PGA Erythma 1: FAINT ERYTHEMA, patients (%)” value (Plaque 1, DAY 1, N = 12)?
**A.** The value was “(16.7%)”.

**Q.** And the “PGA Erythma 2: LIGHT RED COLOURATION, patients (%)” value (Plaque 1, DAY 1, N = 12)?
**A.** Its value is “(66.7%)”.

**Q.** And the “PGA Erythma 3: MODERATE RED COLOURATION, patients (%)” value (Plaque 1, DAY 1, N = 12)?
**A.** The value was “(8.3%)”.

**Q.** What about the “PGA Erythma 4: BRIGHT RED COLOURATION, patients (%)” value (Plaque 1, DAY 1, N = 12) of the same substance?
**A.** The value was “(8.3%)”.

**Q.** What about the “PGA Induration 1: MINIMAL PLAQUE ELEVATION, =0.25 MM, patients (%)” value (Plaque 1, DAY 1, N = 12) of the same substance?
**A.** The value was “(33.3%)”.

**Q.** What about the “PGA Induration 2: MILD PLAQUE ELEVATION, =0.5 MM, patients (%)” value (Plaque 1, DAY 1, N = 12) of the same substance?
**A.** Its value is “(41.7%)”.

**Q.** What about the “PGA Induration 3: MODERATE PLAQUE ELEVATION, =0.75 MM, patients (%)” value (Plaque 1, DAY 1, N = 12) of the same substance?
**A.** The value was “(25.0%)”.

**Q.** What about the “PGA Scaling 2: MILD, FINE SCALE DOMINATES, patients (%)” value (“PGA Scaling 2: MILD … (%)” for short) (Plaque 1, DAY 1, N = 12) of the same substance?
**A.** The value was “(58.3%)”.

**Q.** What about the “PGA Scaling 3: MODERATE, COARSE SCALE PREDOMINATES, patients (%)” value (shortened to “PGA Scaling 3: MODERATE … (%)”) (Plaque 1, DAY 1, N = 12) of the same substance?
**A.** The value was “(33.3%)”.

**Q.** What about the “PGA Scaling 4: MARKED, THICK, NON-TENACIOUS SCALE DOMINATES, patients (%)” value (Plaque 1, DAY 1, N = 12) of the same substance?
**A.** The value was “(8.3%)”.

**Q.** And the “Physician Static Global Score 1: MINIMAL, patients (%)” value (Plaque 1, DAY 1, N = 12)?
**A.** Its value is “(8.3%)”.

**Q.** What about the “Physician Static Global Score 2: MILD, patients (%)” value (Plaque 1, DAY 1, N = 12) of the same substance?
**A.** Its value is “(58.3%)”.

**Q.** And the “Physician Static Global Score 3: MODERATE, patients (%)” value (Plaque 1, DAY 1, N = 12)?
**A.** The value was “(33.3%)”.

**Q.** And the “PGA Erythma 1: FAINT ERYTHEMA, patients (%)” value (Plaque 1, DAY 7, N = 12)?
**A.** Its value is “(16.7%)”.

**Q.** What about the “PGA Erythma 2: LIGHT RED COLOURATION, patients (%)” value (Plaque 1, DAY 7, N = 12) of the same substance?
**A.** Its value is “(66.7%)”.

**Q.** What about the “PGA Erythma 3: MODERATE RED COLOURATION, patients (%)” value (Plaque 1, DAY 7, N = 12) of the same substance?
**A.** Its value is “(8.3%)”.

**Q.** And the “PGA Erythma 4: BRIGHT RED COLOURATION, patients (%)” value (Plaque 1, DAY 7, N = 12)?
**A.** The value was “(8.3%)”.

**Q.** And the “PGA Induration 1: MINIMAL PLAQUE ELEVATION, =0.25 MM, patients (%)” value (Plaque 1, DAY 7, N = 12)?
**A.** Its value is “(66.7%)”.

**Q.** What about the “PGA Induration 2: MILD PLAQUE ELEVATION, =0.5 MM, patients (%)” value (Plaque 1, DAY 7, N = 12) of the same substance?
**A.** The value was “(33.3%)”.

**Q.** And the “PGA Scaling 0: NO EVIDENCE OF SCALING, patients (%)” value (Plaque 1, DAY 7, N = 12)?
**A.** Its value is “(8.3%)”.

**Q.** What about the “PGA Scaling 1: MINIMAL, OCCASIONAL FINE SCALE OVER LESS THAN 5% OF THE LESION, patients (%)” value (“PGA Scaling 1: MINIMAL … (%)” for short) (Plaque 1, DAY 7, N = 12) of the same substance?
**A.** The value was “(58.3%)”.

**Q.** What about the “PGA Scaling 2: MILD … (%)” value (Plaque 1, DAY 7, N = 12) of the same substance?
**A.** The value was “(33.3%)”.

**Q.** And the “Physician Static Global Score 1: MINIMAL, patients (%)” value (Plaque 1, DAY 7, N = 12)?
**A.** Its value is “(41.7%)”.

**Q.** What about the “Physician Static Global Score 2: MILD, patients (%)” value (Plaque 1, DAY 7, N = 12) of the same substance?
**A.** Its value is “(50.0%)”.

**Q.** And the “Physician Static Global Score 3: MODERATE, patients (%)” value (Plaque 1, DAY 7, N = 12)?
**A.** The value was “(8.3%)”.

**Q.** And the “PGA Erythma 1: FAINT ERYTHEMA, patients (%)” value (Plaque 1, FOLLOW-UP, N = 12)?
**A.** Its value is “(33.3%)”.

**Q.** And the “PGA Erythma 2: LIGHT RED COLOURATION, patients (%)” value (Plaque 1, FOLLOW-UP, N = 12)?
**A.** The value was “(58.3%)”.

**Q.** What about the “PGA Erythma 4: BRIGHT RED COLOURATION, patients (%)” value (Plaque 1, FOLLOW-UP, N = 12) of the same substance?
**A.** Its value is “(8.3%)”.

**Q.** And the “PGA Induration 1: MINIMAL PLAQUE ELEVATION, =0.25 MM, patients (%)” value (Plaque 1, FOLLOW-UP, N = 12)?
**A.** Its value is “(33.3%)”.

**Q.** What about the “PGA Induration 2: MILD PLAQUE ELEVATION, =0.5 MM, patients (%)” value (Plaque 1, FOLLOW-UP, N = 12) of the same substance?
**A.** Its value is “(66.7%)”.

**Q.** What about the “PGA Scaling 1: MINIMAL … (%)” value (Plaque 1, FOLLOW-UP, N = 12) of the same substance?
**A.** The value was “(16.7%)”.

**Q.** What about the “PGA Scaling 2: MILD … (%)” value (Plaque 1, FOLLOW-UP, N = 12) of the same substance?
**A.** Its value is “(58.3%)”.

**Q.** What about the “PGA Scaling 3: MODERATE … (%)” value (Plaque 1, FOLLOW-UP, N = 12) of the same substance?
**A.** Its value is “(25.0%)”.

**Q.** What about the “Physician Static Global Score 1: MINIMAL, patients (%)” value (Plaque 1, FOLLOW-UP, N = 12) of the same substance?
**A.** The value was “(16.7%)”.

**Q.** What about the “Physician Static Global Score 2: MILD, patients (%)” value (Plaque 1, FOLLOW-UP, N = 12) of the same substance?
**A.** The value was “(75.0%)”.

**Q.** What about the “Physician Static Global Score 3: MODERATE, patients (%)” value (Plaque 1, FOLLOW-UP, N = 12) of the same substance?
**A.** The value was “(8.3%)”.

**Q.** And the “PGA Erythma 1: FAINT ERYTHEMA, patients (%)” value (Plaque 1, SCREENING, N = 12)?
**A.** The value was “(8.3%)”.

**Q.** And the “PGA Erythma 2: LIGHT RED COLOURATION, patients (%)” value (Plaque 1, SCREENING, N = 12)?
**A.** Its value is “(41.7%)”.

**Q.** What about the “PGA Erythma 3: MODERATE RED COLOURATION, patients (%)” value (Plaque 1, SCREENING, N = 12) of the same substance?
**A.** Its value is “(41.7%)”.

**Q.** What about the “PGA Erythma 4: BRIGHT RED COLOURATION, patients (%)” value (Plaque 1, SCREENING, N = 12) of the same substance?
**A.** The value was “(8.3%)”.

**Q.** And the “PGA Induration 1: MINIMAL PLAQUE ELEVATION, =0.25 MM, patients (%)” value (Plaque 1, SCREENING, N = 12)?
**A.** Its value is “(33.3%)”.

**Q.** What about the “PGA Induration 2: MILD PLAQUE ELEVATION, =0.5 MM, patients (%)” value (Plaque 1, SCREENING, N = 12) of the same substance?
**A.** The value was “(50.0%)”.

**Q.** What about the “PGA Induration 3: MODERATE PLAQUE ELEVATION, =0.75 MM, patients (%)” value (Plaque 1, SCREENING, N = 12) of the same substance?
**A.** Its value is “(8.3%)”.

**Q.** What about the “PGA Induration 4: MARKED PLAQUE ELEVATION, =1 MM, patients (%)” value (Plaque 1, SCREENING, N = 12) of the same substance?
**A.** Its value is “(8.3%)”.

**Q.** What about the “PGA Scaling 1: MINIMAL … (%)” value (Plaque 1, SCREENING, N = 12) of the same substance?
**A.** The value was “(16.7%)”.

**Q.** What about the “PGA Scaling 2: MILD … (%)” value (Plaque 1, SCREENING, N = 12) of the same substance?
**A.** The value was “(33.3%)”.

**Q.** What about the “PGA Scaling 3: MODERATE … (%)” value (Plaque 1, SCREENING, N = 12) of the same substance?
**A.** Its value is “(41.7%)”.

**Q.** What about the “PGA Scaling 4: MARKED, THICK, NON-TENACIOUS SCALE DOMINATES, patients (%)” value (Plaque 1, SCREENING, N = 12) of the same substance?
**A.** Its value is “(8.3%)”.

**Q.** What about the “Physician Static Global Score 1: MINIMAL, patients (%)” value (Plaque 1, SCREENING, N = 12) of the same substance?
**A.** Its value is “(16.7%)”.

**Q.** What about the “Physician Static Global Score 2: MILD, patients (%)” value (Plaque 1, SCREENING, N = 12) of the same substance?
**A.** Its value is “(41.7%)”.

**Q.** What about the “Physician Static Global Score 3: MODERATE, patients (%)” value (Plaque 1, SCREENING, N = 12) of the same substance?
**A.** Its value is “(33.3%)”.

**Q.** And the “Physician Static Global Score 4: MARKED, patients (%)” value (Plaque 1, SCREENING, N = 12)?
**A.** The value was “(8.3%)”.

**Q.** What about the “PGA Erythma 2: LIGHT RED COLOURATION, patients (%)” value (Plaque 2, DAY 1, N = 12) of the same substance?
**A.** Its value is “(33.3%)”.

**Q.** And the “PGA Induration 1: MINIMAL PLAQUE ELEVATION, =0.25 MM, patients (%)” value (Plaque 2, DAY 1, N = 12)?
**A.** The value was “(8.3%)”.

**Q.** What about the “PGA Induration 2: MILD PLAQUE ELEVATION, =0.5 MM, patients (%)” value (Plaque 2, DAY 1, N = 12) of the same substance?
**A.** Its value is “(16.7%)”.

**Q.** And the “PGA Induration 3: MODERATE PLAQUE ELEVATION, =0.75 MM, patients (%)” value (Plaque 2, DAY 1, N = 12)?
**A.** Its value is “(8.3%)”.
